Data reported in US20220024921A1, “1,3,4-OXADIAZOLONE COMPOUND AND PHARMACEUTICAL” (NIPPON SHINYAKU CO., LTD., priority 2018, published 2022).
Counter-ions that a name gives are not always drawn.

These compounds were tested against T1, PIM1 serine/threonine kinase (Homo sapiens, UniProt P11309) (assay: PIM1 serine/threonine kinase inhibitory effect). Conditions: PIM1 serine/threonine kinase activity; ATP 40 μM; 30° C., 30 minutes.
T1 construct: purchased Carna Bioscience, Inc
Assay type: biochemical
Experimental: Each test substance was prepared to 10 mM with dimethylsulfoxide (DMSO), and further diluted with DMSO so as to have concentrations of 1000, 300, 100, 30, 10, 3, 1, 0.3, 0.1, 0.03, 0.01, and 0.001 μM. Moreover, each dilution was further diluted 33.3-fold with an assay buffer to prepare a test substance solution. The composition of the assay buffer was 50 mM HEPES (pH 7.0), 0.02% NaN3, 0.01% Bovine Serum Albumin, 0.1 mM Orthovanadate, 1 mM Dithiothreitol, and 5 mM MgCl2.
5 μL of each test substance solution was added to 384-well plates (n=2), and then 2.5 μL of a substrate solution (substrate 3-biotin (Cisbio Bioassays SAS), final concentration in the reaction solution: 0.5 μM) and 2.5 μL of an ATP solution (in the cases of PIM1, 2, 3, the final concentrations in the reaction solutions were 40, 2, and 10 μM, respectively) were added, 5 μL of each of PIM1, 2, 3 serine/threonine kinase solutions (Carna Bioscience, Inc., the final concentrations in the reaction solutions were 0.15, 1.6, and 0.25 μg/ml, respectively) was finally added, and the mixture was reacted at 30° C. for 30 minutes. The test substance concentrations in the reaction solutions are 10000, 3000, 1000, 300, 100, 30, 10, 3, 1, 0.3, 0.1, and 0.01 nM.
Thereafter, 15 μL of each detection solution (62.5 nM Streptavidin-XL665 (Cisbio Bioassays SAS), […] STK antibody-Cryptate (Cisbio Bioassays SAS), 50 mM HEPES (pH 7.0), 0.8 M KF, 0.1% Bovine Serum Albumin, 20 mM ethylenediaminetetraacetic acid) was added to each well. After stirring, the mixture was reacted at 30° C. for 1 hour. Absorbance (OD620, OD665) at 620 and 665 nm was measured with a microplate reader (SpectraMax M5e, Molecular Devices, LLC).
Non-linear regression analysis was performed by an SAS system (SAS Institute Inc.) using the ratio (OD665/OD620) of the measured absorbance to calculate a test substance concentration (IC50) that inhibits PIM1 serine/threonine kinase activity by 50%.

T1 sequence (P11309 whole entry): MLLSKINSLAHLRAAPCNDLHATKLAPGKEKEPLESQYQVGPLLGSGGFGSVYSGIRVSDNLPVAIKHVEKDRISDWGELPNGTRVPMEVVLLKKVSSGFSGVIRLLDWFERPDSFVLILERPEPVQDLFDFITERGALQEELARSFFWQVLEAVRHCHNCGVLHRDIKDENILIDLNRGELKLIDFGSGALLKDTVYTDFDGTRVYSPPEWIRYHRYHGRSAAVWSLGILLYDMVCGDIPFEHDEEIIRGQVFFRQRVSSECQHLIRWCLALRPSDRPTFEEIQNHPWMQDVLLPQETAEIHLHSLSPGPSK

Q: How did the IC50 turn out when `CC(C[C@H]1CCNC1)Nc1cc(-c2n[nH]c(=O)o2)ccc1C(F)(F)F` (stereo partly drawn) [Example 136, 5-[3-({1-[(3R)-pyrrolidin-3-yl]propan-2-yl}amino)-4-(trifluoromethyl)phenyl]-1,3,4-oxadiazol-2(3H)-one hydrochloride] was run?
A: The IC50 was 16 nM.

Q: `CC(C[C@@H]1CCNC1)Nc1cc(-c2n[nH]c(=O)o2)ccc1C(F)(F)F` (stereo partly drawn) [Example 134, 5-[3-({1-[(3S)-pyrrolidin-3-yl]propan-2-yl}amino)-4-(trifluoromethyl)phenyl]-1,3,4-oxadiazol-2(3H)-one hydrochloride] was tested. Which IC50 did it give?
A: The IC50 was 14 nM.

Q: How did the IC50 turn out when `O=c1[nH]nc(-c2ccc(C(F)(F)F)c(-c3ccc(OCC4CCNCC4)cc3)c2)o1` [Example 23, 5-{4′-[(piperidin-4-yl)methoxy]-6-(trifluoromethyl)[1,1′-biphenyl]-3-yl}-1,3,4-oxadiazol-2(3H)-one hydrochloride] was run?
A: The IC50 was 110 nM.

Q: `NCc1ccc(Nc2cc(-c3n[nH]c(=O)o3)ccc2C(F)(F)F)cc1` [Example 41, 5-{3-[4-(aminomethyl)anilino]-4-(trifluoromethyl)phenyl}-1,3,4-oxadiazol-2(3H)-one hydrochloride] was tested. Which IC50 did it give?
A: The IC50 was 40 nM.

Q: Which IC50 does the source give for `NCc1cccc(-c2cc(-c3n[nH]c(=O)o3)ccc2C(F)(F)F)c1` [Example 21, 5-[3′-(aminomethyl)-6-(trifluoromethyl)[1,1′-biphenyl]-3-yl]-1,3,4-oxadiazol-2(3H)-one hydrochloride] here?
A: The IC50 was 160 nM.

Q: How did the IC50 turn out when `Cc1c(-c2n[nH]c(=O)o2)cc(Cl)c(Cl)c1N[C@@H](C)C1CCNCC1` [Example 93, 5-(4,5-dichloro-2-methyl-3-{[(1S)-1-(piperidin-4-yl)ethyl]amino}phenyl)-1,3,4-oxadiazol-2(3H)-one hydrochloride] was run?
A: Its IC50 is 36 nM.

Q: `CN(Cc1cc(-c2n[nH]c(=O)o2)ccc1Cl)C1CCNCC1` [Example 205, 5-(4-chloro-3-{[methyl(piperidin-4-yl)amino]methyl}phenyl)-1,3,4-oxadiazol-2(3H)-one dihydrochloride] was tested. Which IC50 did it give?
A: Its IC50 is 290 nM.

Q: How did the IC50 turn out when `C[C@H](Nc1cc(-c2n[nH]c(=O)o2)ccc1F)C1CCNCC1` [Example 80, 5-(4-fluoro-3-{[(1S)-1-(piperidin-4-yl)ethyl]amino}phenyl)-1,3,4-oxadiazol-2(3H)-one hydrochloride] was run?
A: Its IC50 is 56 nM.

Q: How did the IC50 turn out when `O=c1[nH]nc(-c2ccc(C(F)(F)F)c(NC[C@H]3CC[C@H](C(=O)O)CC3)c2)o1` [Example 119, (1r,4r)-4-{[5-(5-oxo-4,5-dihydro-1,3,4-oxadiazol-2-yl)-2-(trifluoromethyl)anilino]methyl}cyclohexane-1-carboxylic acid] was run?
A: The IC50 was 1800 nM.

Q: How did the IC50 turn out when `CC(C)(C)OC(=O)NCc1cccc(-c2cc(-c3n[nH]c(=O)o3)ccc2Cl)c1` [Example 17, tert-butyl {[2′-chloro-5′-(5-oxo-4,5-dihydro-1,3,4-oxadiazol-2-yl)[1,1′-biphenyl]-3-yl]methyl}carbamate] was run?
A: The IC50 was 1300 nM.

Q: How did the IC50 turn out when `O=c1[nH]nc(-c2ccc(C(F)(F)F)c(N[C@@H](C3CCNCC3)C(F)(F)F)c2)o1` [Example 147, 5-[4-(trifluoromethyl)-3-{[(1S)-2,2,2-trifluoro-1-(piperidin-4-yl)ethyl]amino}phenyl]-1,3,4-oxadiazol-2(3H)-one hydrochloride] was run?
A: Its IC50 is 23 nM.

Q: Which IC50 does the source give for `CC(C)(C)OC(=O)[C@H]1CC[C@H](CNc2cc(-c3n[nH]c(=O)o3)ccc2C(F)(F)F)CC1` [Example 118, tert-butyl (1r,4r)-4-{[5-(5-oxo-4,5-dihydro-1,3,4-oxadiazol-2-yl)-2-(trifluoromethyl)anilino]methyl}cyclohexane-1-carboxylate] here?
A: Its IC50 is 7300 nM.

Q: Which IC50 does the source give for `C[C@H](Nc1cc(-c2n[nH]c(=O)o2)cc(C2CC2)c1Cl)C1CCNCC1` [Example 102, 5-(4-chloro-3-cyclopropyl-5-{[(1S)-1-(piperidin-4-yl)ethyl]amino}phenyl)-1,3,4-oxadiazol-2(3H)-one] here?
A: Its IC50 is 36 nM.

Q: For `NC1CCN(c2cc(-c3n[nH]c(=O)o3)ccc2C(F)(F)F)CC1` [Example 9, 5-[3-(4-aminopiperidin-1-yl)-4-(trifluoromethyl)phenyl]-1,3,4-oxadiazol-2(3H)-one hydrochloride], which IC50 is on record?
A: Its IC50 is 45 nM.

Q: With `C[C@H](Nc1cc(-c2n[nH]c(=O)o2)ccn1)C1CCNCC1` [Example 112, 5-(2-{[(1S)-1-(piperidin-4-yl)ethyl]amino}pyridin-4-yl)-1,3,4-oxadiazol-2(3H)-one dihydrochloride] as the compound, how does the IC50 read?
A: The IC50 was 600 nM.

Q: With `CC(C)(C)OC(=O)NCc1ccc(-c2cc(-c3n[nH]c(=O)o3)ccc2C(F)(F)F)cc1` [Example 19, tert-butyl {[5′-(5-oxo-4,5-dihydro-1,3,4-oxadiazol-2-yl)-2′-(trifluoromethyl)[1,1′-biphenyl]-4-yl]methyl}carbamate] as the compound, how does the IC50 read?
A: The IC50 was 1500 nM.

Q: How did the IC50 turn out when `CC(=O)N1CCC(N(C)Cc2cc(-c3n[nH]c(=O)o3)ccc2Cl)CC1` [Example 215, 5-(3-{[(1-acetylpiperidin-4-yl)(methyl)amino]methyl}-4-chlorophenyl)-1,3,4-oxadiazol-2(3H)-one hydrochloride] was run?
A: The IC50 was 8800 nM.

Q: `C[C@H](Nc1cc(-c2n[nH]c(=O)o2)ccc1S(C)(=O)=O)C1CCNCC1` [Example 128, 5-[4-(methanesulfonyl)-3-{[(1S)-1-(piperidin-4-yl)ethyl]amino}phenyl]-1,3,4-oxadiazol-2(3H)-one hydrochloride] was tested. Which IC50 did it give?
A: The IC50 was 82 nM.

Q: For `NC(=O)[C@H]1CC[C@H](CNc2cc(-c3n[nH]c(=O)o3)ccc2C(F)(F)F)CC1` [Example 121, (1r,4r)-4-{[5-(5-oxo-4,5-dihydro-1,3,4-oxadiazol-2-yl)-2-(trifluoromethyl)anilino]methyl}cyclohexane-1-carboxamide], which IC50 is on record?
A: Its IC50 is 120 nM.

Q: Which IC50 does the source give for `O=c1[nH]nc(-c2ccc(Cl)c(N3CCNCC3)c2)o1` [Example 8, 5-[4-chloro-3-(piperazin-1-yl)phenyl]-1,3,4-oxadiazol-2(3H)-one hydrochloride] here?
A: Its IC50 is 810 nM.

Q: With `COc1ccc(-c2n[nH]c(=O)o2)cc1N[C@@H](C)C1CCNCC1` [Example 82, 5-(4-methoxy-3-{[(1S)-1-(piperidin-4-yl)ethyl]amino}phenyl)-1,3,4-oxadiazol-2(3H)-one dihydrochloride] as the compound, how does the IC50 read?
A: Its IC50 is 71 nM.

Q: With `N[C@H]1CC[C@H](CNc2cccc(-c3n[nH]c(=O)o3)c2)CC1` [Example 62, 5-[3-({[(1r,4r)-4-aminocyclohexyl]methyl}amino)phenyl]-1,3,4-oxadiazol-2(3H)-one hydrochloride] as the compound, how does the IC50 read?
A: Its IC50 is 140 nM.

Q: For `NCCCNc1cc(-c2n[nH]c(=O)o2)ccc1C(F)(F)F` [Example 2, 5-{3-[(3-aminopropyl)amino]-4-(trifluoromethyl)phenyl}-1,3,4-oxadiazol-2(3H)-one], which IC50 is on record?
A: The IC50 was 27 nM.

Q: For `O=c1[nH]nc(-c2ccc(C(F)(F)F)c(NC[C@H]3CC[C@H](CO)CC3)c2)o1` [Example 120, 5-[3-({[(1r,4r)-4-(hydroxymethyl)cyclohexyl]methyl}amino)-4-(trifluoromethyl)phenyl]-1,3,4-oxadiazol-2(3H)-one], which IC50 is on record?
A: The IC50 was 590 nM.

Q: How did the IC50 turn out when `CC(C)(C)OC(=O)N1CCN(c2cc(-c3n[nH]c(=O)o3)ccc2Cl)CC1` [Example 7, tert-butyl 4-[2-chloro-5-(5-oxo-4,5-dihydro-1,3,4-oxadiazol-2-yl)phenyl]piperazine-1-carboxylate] was run?
A: The IC50 was 4100 nM.
